pEC50: −log10 of the molar value. Like-named read-outs stand apart in the source and are kept apart here. Marks after values point to notes of the source that are not given here.

For data set [1] the following is noted: […] NaCl water solution; *values from literature; cited from earlier work.
For data set [2] the following is noted: pH 1.
In data set [3] the target is T1, bovine serum albumin (Bos taurus, UniProt P02769). As to conditions: cited from earlier work.
The target of data set [4] is T1, bovine serum albumin. Description: Albumin binding by equilibrium dialysis. It is filed as in vitro ADME. Further details: 5% bovine serum albumin-saline solution (pH 7.2); from tissue; host or cells: bovine serum (by the name of the product). The conditions noted are these: 100 μM BA in 5% bovine serum albumin-saline, pH 7.2. The procedure: The extent of albumin binding was evaluated by equilibrium dialysis at a fixed BA-albumin ratio. Each BA was dissolved at a concentration of 100 μM in 5% bovine serum albumin-saline solution (pH 7.2) and left to stand for 24 h at 25° C. Two milliliters of this solution was dialyzed in cellulose sacs having a molecular weight cut-off of 12,000-14,000 Dalton against 25 ml of saline solution. The system was equilibrated by gently shaking for 72 h at 25° C. BA concentrations of the dialyzed solution (corresponding to the free unbound fraction) and of the starting solution were determined with HPLC-ESI-MS/MS in the same conditions of the previous analysis.
The percentage of albumin binding was calculated from the initial BA concentration and from the unbound concentration in the dialyzed fraction.

The conditions of data set [5]: pH 8.
Description: (§1) The octanol/water partition coefficient was measured for molecules in their ionized form and therefore the carboxy analogues were studied at a relatively high pH (8 to 9) to ensure full ionization of the carboxyl group. The 1-Octanol/water partition coefficient (log P) was evaluated using a conventional shake-flask procedure. […] The aqueous buffer was previously pre-saturated with 1-octanol, 5 ml of 1-octanol pre-saturated with water was then added and the samples were left to equilibrate for 2 weeks under continuous stirring at room temperature. After centrifugation the two phases were carefully separated. […] The flow rate was 150 μal/min and the column was maintained at 45° C.
A further data set concerns the target T2, PPARδ (Homo sapiens, UniProt Q03181).
T2 sequence (Q03181 211-439 limits assumed): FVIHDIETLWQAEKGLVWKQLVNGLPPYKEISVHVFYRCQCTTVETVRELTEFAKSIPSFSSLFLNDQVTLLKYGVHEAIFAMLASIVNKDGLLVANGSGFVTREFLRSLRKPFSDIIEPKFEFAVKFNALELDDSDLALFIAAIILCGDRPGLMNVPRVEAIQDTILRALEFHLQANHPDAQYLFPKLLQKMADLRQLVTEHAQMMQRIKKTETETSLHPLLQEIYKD
Description: PPARδ activation, NR selectivity assay. As to conditions: Table 6.

The next data set deals with T3, LXRα (Homo sapiens, UniProt Q13133).
T3 sequence (Q13133 1-447): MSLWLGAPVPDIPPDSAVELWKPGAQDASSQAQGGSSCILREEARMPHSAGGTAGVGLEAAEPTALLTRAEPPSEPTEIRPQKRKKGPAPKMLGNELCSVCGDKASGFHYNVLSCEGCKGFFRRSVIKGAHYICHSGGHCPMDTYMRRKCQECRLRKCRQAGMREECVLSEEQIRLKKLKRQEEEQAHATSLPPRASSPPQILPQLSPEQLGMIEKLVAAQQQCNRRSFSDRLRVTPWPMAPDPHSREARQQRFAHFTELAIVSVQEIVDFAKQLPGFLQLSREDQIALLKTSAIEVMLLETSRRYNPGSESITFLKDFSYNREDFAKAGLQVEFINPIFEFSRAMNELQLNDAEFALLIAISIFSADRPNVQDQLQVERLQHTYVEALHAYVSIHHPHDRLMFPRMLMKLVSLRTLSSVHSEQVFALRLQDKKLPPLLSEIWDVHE
As to the kind of experiment: LXR coactivator recruitment (Alphascreen). It is filed as biochemical. The conditions noted are these: Table 6.

Another data set addresses T4, CAR (Homo sapiens, UniProt Q14994).
T4 construct: purchased Invitrogen
T4 sequence (Q14994 109-352 limits assumed): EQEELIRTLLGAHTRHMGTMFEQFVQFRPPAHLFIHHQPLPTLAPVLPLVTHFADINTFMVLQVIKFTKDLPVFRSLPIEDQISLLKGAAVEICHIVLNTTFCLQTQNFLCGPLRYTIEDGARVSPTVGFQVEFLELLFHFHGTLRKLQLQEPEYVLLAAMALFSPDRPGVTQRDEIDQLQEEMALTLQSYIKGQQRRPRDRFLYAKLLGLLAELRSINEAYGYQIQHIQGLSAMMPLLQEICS
Description: CAR coactivator recruitment (Lanthascreen). It counts as biochemical. As to conditions: Table 6; *: data representing inverse agonism; read-out: CAR Activation EC50.

Data set [6] has as its system HepG2 cells.
The target of the next data set is T5, VDR (Homo sapiens, UniProt P11473).
T5 construct: purchased Invitrogen
T5 sequence (P11473 127-423 limits assumed): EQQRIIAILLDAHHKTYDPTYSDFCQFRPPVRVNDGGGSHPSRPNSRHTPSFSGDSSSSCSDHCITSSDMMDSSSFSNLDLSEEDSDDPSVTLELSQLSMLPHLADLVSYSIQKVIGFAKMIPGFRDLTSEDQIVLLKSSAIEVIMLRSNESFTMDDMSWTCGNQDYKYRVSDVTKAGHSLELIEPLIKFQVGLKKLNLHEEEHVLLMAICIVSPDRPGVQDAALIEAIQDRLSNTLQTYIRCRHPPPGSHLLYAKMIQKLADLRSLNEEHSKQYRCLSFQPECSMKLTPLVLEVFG
As to the kind of experiment: VDR activation, NR selectivity assay. It counts as biochemical. As to conditions: Table 6.

Data set [7] is described as follows: Critical micellar concentration by surface tension measurements. It is filed as physicochemical. As to conditions: […] NaCl water solution. The procedure: The critical micellar concentration (CMC) was determined by surface tension (ST) measurements using a maximum bubble-pressure method which give surface tension values slightly affected by potential impurities […] static methods. […] The surface tension values were plotted against the logarithm of the bile salt concentration; the regression lines corresponding to the two parts of the curve (monomeric and micellar phases) were calculated using the method of least squares, and the intersection of the lines was taken as the CMC value. From the ST vs concentration curves the value of the surface tension at the CMC (equilibrium between monomers and multimers species) was also calculated giving information about the detergency power which is related to the size of the micelles with associate surface tension lowering capacity. The CMC was evaluated by surface tension measurements in non equilibrium conditions i.e. in conditions that impurities slightly affect the surface tension results (FIG. 6). […] The presence of a hydroxyl group in the C-16 beta position reduces the hydrophobic area responsible for back to back interaction, which is to form micelles and therefore, the micelles are small and poorly detergent. This property confers to the molecule a low toxicity when accumulated in a given biological fluid or organ.

A further data set is described as follows: in vitro. The conditions noted are these: human.
The nature of data set [8]: Bile fistula rat, femoral (iv) infusion: bile flow, biliary secretion, metabolism. The conditions noted are these: iv infusion, bile fistula rat.
Data set [9] has as its system HepG2 cells. As to the kind of experiment: HepG2 necrosis (LDH release). The conditions noted are these: Homo sapiens, HepG2, 4 h, read-out: NECROSIS LDH release EC50. It counts as cell-based. (In general: LDH in the medium is a marker of cell lysis.)
The nature of data set [10]: 1-Octanol/water partition coefficient (shake-flask). As to conditions: bile acids as ionized species, pH 8.
Description: as §1
Another data set deals with intestinal bacteria. Description: In vitro metabolic stability in human stools culture. It is filed as in vitro ADME. The procedure:
Homogenized fresh human stools (500 mg) were transferred into sterile vials to which 5 mL of sterilized chopped meat-glucose medium (Scott Lab., Fiskville, R.I.) was added. BAs were then added at a final concentration of 0.05 mM. Vials were incubated at 37° C.; then, at 0, 1, 2, 4, 8 and 24 h after the addition of the BA, the reaction was stopped with 150 μL of 30% KOH. The samples were centrifuged at 3500 rpm for 10 min; from the supernatant the BA were isolated by C-18 solid-phase extraction and analyzed by TLC and HPLC-ES-MS/MS.
Thin-layer chromatography (TLC), utilizing silica gel 0.25 mm thickness plates (Merck, Darmstat, Germany), was employed as the first screening test. The solvent system used for the separation of conjugated BA was composed of propionic acid/isoamyl acetate/water/N-propanol (3:4:1:2, v/v/v/v; solvent I), and that of the unconjugated BA was acetic acid/carbon tetrachloride/isopropyl ether/isoamyl acetate/water/N-propanol/benzene (1:4:6:8:2:2, v/v/v/v/v/v; solvent II).

The subject of data set [11] is HepG2 cells. As to the kind of experiment: HepG2 apoptosis (caspase-3 activation). It counts as cell-based. As to conditions: Homo sapiens, HepG2, 4 h, read-out: APOPTOSIS Caspase-3 activation EC50.
A further data set concerns the target T6, hFXR (Homo sapiens, UniProt Q96RI1).
T6 sequence (Q96RI1 262-486 limits assumed): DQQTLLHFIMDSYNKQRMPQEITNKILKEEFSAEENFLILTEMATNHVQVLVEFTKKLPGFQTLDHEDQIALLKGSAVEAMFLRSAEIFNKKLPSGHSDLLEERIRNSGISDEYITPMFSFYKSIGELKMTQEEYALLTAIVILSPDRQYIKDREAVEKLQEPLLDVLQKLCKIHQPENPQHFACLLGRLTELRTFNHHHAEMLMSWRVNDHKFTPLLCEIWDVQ
Description: Alphascreen coactivator recruitment assay on FXR. As to conditions: Table 6; coactivator recruitment (Alphascreen). A general note: Bead proximity is the source of the signal in Alpha formats.

The conditions of data set [12]: previous study, cited from earlier work.
Data set [13] concerns HepG2 cells. As to the kind of experiment: HepG2 cytotoxicity (ATP decrease, ATP-Lite). The conditions noted are these: read-out: CYTOTOXICITY ATP decrease EC50, 4 h.

T1 sequence (P02769 25-607): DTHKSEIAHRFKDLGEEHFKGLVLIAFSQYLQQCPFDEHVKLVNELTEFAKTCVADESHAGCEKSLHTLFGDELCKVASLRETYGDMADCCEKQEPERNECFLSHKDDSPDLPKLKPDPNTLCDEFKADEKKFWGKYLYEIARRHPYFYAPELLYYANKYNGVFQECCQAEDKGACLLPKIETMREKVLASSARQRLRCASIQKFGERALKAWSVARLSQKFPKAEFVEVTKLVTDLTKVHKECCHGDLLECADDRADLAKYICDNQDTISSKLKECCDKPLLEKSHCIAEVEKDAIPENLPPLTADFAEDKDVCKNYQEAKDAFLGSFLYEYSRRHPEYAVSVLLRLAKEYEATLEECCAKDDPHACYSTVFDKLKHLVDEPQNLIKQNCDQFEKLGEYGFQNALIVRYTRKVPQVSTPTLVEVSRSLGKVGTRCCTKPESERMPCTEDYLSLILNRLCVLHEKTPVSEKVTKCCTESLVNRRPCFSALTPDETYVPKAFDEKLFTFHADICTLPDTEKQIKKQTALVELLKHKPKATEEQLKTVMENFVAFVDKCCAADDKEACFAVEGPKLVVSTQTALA
Description for hFXR: Activity on FXR was assayed by using Alphascreen technology in a coactivator recruitment assay. AlphaScreen is a bead-based chemistry assay used to study biomolecular interactions. Binding of molecules captured on the beads leads to an energy transfer from one bead to the other, ultimately producing a luminescent signal. When the partners interact, chemical energy is transferred from Donor to Acceptor beads and a signal is produced. Upon bile acids stimulation the GST-FXR-LBD interacts with the Src-1 peptide. Anti-GST-coated Acceptor beads were used to capture the GST-fusion FXR-LBD whereas the biotinylated-SRC-1 peptide was captured by the streptavidin Donor beads. Upon illumination at 680 nm chemical energy is transferred from Donor to Acceptor beads across the complex streptavidin-Donor/Src-1-Biotin/GSTFXR-LBD/Anti-GST-Acceptor and a signal is produced. The assay was performed in white, low-volume, 384-well Optiplates (PerkinElmer) using a final volume of 25 μl containing final concentrations of 10 nM of purified GST-tagged FXR-LBD protein, 30 nM biotinylated Src-1 peptide, 20 μg/ml anti-GST acceptor beads acceptor beads and 10 μg/ml of streptavidin donor bead (PerkinElmer). […] After the addition of the detection mix (acceptor and donor beads), the plates were incubated in the dark for 4 h at room temperature and then were read with an Envision microplate analyzer (PerkinElmer). […]

Regarding `C[C@H](CCC(=O)NCCS(=O)(=O)O)[C@H]1CC[C@H]2[C@@H]3[C@H](O)C[C@@H]4C[C@H](O)CC[C@]4(C)[C@H]3CC[C@]12C` [TCDCA], in data set [1], the “CMC […] Na+” value is 3.0* mM. For the same compound, the “Ws: water solubility” value in [2] is listed as “hs”. Besides, at bovine serum albumin [3], the “Albumin Binding” value is listed as 70* %.

Consider `C[C@H](CCC(=O)O)[C@H]1CCC2C3C(CC[C@@]21C)[C@@]1(C)CC[C@@H](O)CC1[C@@H](C)[C@@H]3O` (some centres unmarked) [Compound 6MUDCA], for which the “CMC […] Na+” value in data set [1] is recorded as 4.2* mM. Moreover, at bovine serum albumin [3], the “Albumin Binding” value is reported as 80* %.

For the compound `C[C@H](CCC(=O)O)[C@H]1CC[C@H]2[C@@H]3[C@@H](O)C[C@@H]4C[C@H](O)CC[C@]4(C)[C@H]3CC[C@]12C` [UDCA], the “Albumin Binding” value on bovine serum albumin [4] is reported as 94%. Further, in [5], the “LogPA-: 1-octanol-water partition coefficient” value worked out at 2.2. Further, the “PPARδ Activation EC50” value at PPARδ is on record as “No activity”. For the same compound, the “LXRα Activation EC50” value on LXRα is reported as “No activity”. Also, the pEC50 (usually −log10 of the EC50, conventionally taken in molar units) on CAR is less than 3.60; with HepG2 cells [6] it was less than 3.00. In addition, the “VDR Activation EC50” value on VDR is reported as “No activity”. Moreover, the “Ws: water solubility” value in data set [2] worked out at 7.5 µM. The “CMC […] Na+” value in [7] is listed as 6.0 mM. In addition, the “STCMC: Surface Tension at CMC” value in data set [7] is on record as 50.5 Dyne/cm.

Take `C[C@H](CCC(=O)O)[C@H]1CC[C@H]2[C@@H]3[C@H](O)C[C@@H]4C[C@H](O)CC[C@]4(C)[C@H]3CC[C@]12C` [CDCA, chenodeoxycholic acid, reference compound]: the “Albumin Binding” value on bovine serum albumin [4] came out at 93%. Besides, in “in vitro”, a half-maximal effect (EC50 at 4 h) was put at 650 µM. Moreover, the “Bile flow with respect to control” value in data set [8] is “No significant differences”. Moreover, the “Maximum bile flow rate” value in [8] (control 70) was determined as 4.8 mL/h/kg. The pEC50 in the data set on HepG2 cells [9] is less than 3.00. Besides, the “LogPA-: 1-octanol-water partition coefficient” value in data set [10] turned out to be 2.2. The “Metabolism in human stool cultures” value in the data set on intestinal bacteria is “almost completely metabolized”. Besides, the “Half-life time in human stool cultures” value in the data set on intestinal bacteria (7α-dehydroxylation, 0.05 mM, 37° C.) is reported as “almost one hour”. Besides, in the data set with HepG2 cells [11], the pEC50 is 3.05. Moreover, in [7], the “CMC […] Na+” value is reported as 3.2 mM and the “STCMC: Surface Tension at CMC” value is reported as 45.5 Dyne/cm.

In the case of `C[C@H](CCC(=O)O)[C@H]1CC[C@H]2[C@@H]3[C@H](O)C[C@@H]4C[C@H](O)CC[C@]4(C)[C@H]3C[C@H](O)[C@]12C` [CA, cholic acid, reference compound], the “FXR Activation EC50” value on hFXR is “No activity”.

With `CC1(C)CC[C@]2(C(=O)O)CC[C@]3(C)C(=CC[C@@H]4[C@@]5(C)CC[C@H](O)C(C)(C)[C@@H]5CC[C@]43C)[C@@H]2C1` [OA, oleanolic acid], in data set [12] (100 mg/kg/day), the Toxicity in animals result is recorded as “some signs of toxicity”. The Tolerability in animals entry in data set [12] (lower dose than 100 mg/kg/day) is recorded as “well tolerated”.

Regarding `C[C@H](CCC(=O)O)[C@H]1CC[C@H]2[C@@H]3CC[C@@H]4C[C@H](O)CC[C@]4(C)[C@H]3CC[C@]12C` [LCA, lithocholic acid], the figures for the pEC50 in the data set with HepG2 cells [9] and in the data set on HepG2 cells [11] were 3.98 and 4.19, respectively.

Consider `CN[C@@H]1C[C@H]2O[C@@](C)([C@@H]1OC)n1c3ccccc3c3c4c(c5c6ccccc6n2c5c31)C(=O)NC4` [Staurosporine], for which the pEC50 in the data set on HepG2 cells [13] was 4.82.

With `C[C@H](CCC(=O)NCCS(=O)(=O)O)[C@H]1CC[C@H]2[C@@H]3[C@@H](O)C[C@@H]4C[C@H](O)CC[C@]4(C)[C@H]3CC[C@]12C` [TUDCA], the “CMC […] Na+” value in data set [1] is listed as 2.2* mM. Besides, the “Ws: water solubility” value in data set [2] is “hs”. The “Albumin Binding” value on bovine serum albumin [3] is recorded as 67* %.

The values above are taken from patent US8999964B2, “TGR5 modulators and methods of use thereof” (Intercept Pharmaceuticals, Inc., priority 2008, dated 2015).
